Article PMC8073907, “Peptide targeting of lysophosphatidylinositol-sensing GPR55 for osteoclastogenesis tuning” (Cell Communication and Signaling : CCS, 2021)

Legend:
RAW264.7 cells = assay: RANKL-induced transcription of osteoclastogenesis markers in RAW264.7 cells (real-time PCR); type: cell-based, murine; conditions: 72 h, 15–30 ng/mL RANKL, 30 µM O1918; for effect on RANKL-induced Mmp-9 mRNA: 0.5 µM CBD
Experimental: (§1) Total RNA was extracted using RNeasy isolation kits, cDNAs were obtained using QuantiTect Reverse Transcription kits, and real-time PCRs were performed with QuantiTect SYBR Green PCR kits (all from Qiagen, Hilden, Germany), according to the manufacturer instructions. The primers used for the real-time PCRs and their annealing temperatures are listed in the Additional file 1: Table S1. Human hypoxanthine phosphoribosyltransferase 1 (HPRT1) or murine β2-microglobulin were followed as housekeeping genes. The real-time PCR programme consisted of an initial 15 min at 95 °C, and then 45 cycles as follows: 94 °C for 15 s, annealing temperature of each primer for 30 s, and 72 °C for 30 s. The real-time PCR machine used was a LightCycler 480 Instrument II (Roche, Indianapolis, IN, USA).
For transient interference of Gpr55, RAW264.7 cells were plated at 6 × 10^5 cells/well in six-well plates in growth medium without antibiotics. Twenty-four hours later, the cells were transfected with 250 pmol/well non-targeting small-interfering (si)RNAs (si-NT; siGENOME siRNA Pool #2; D-001206-14; Dharmacon, Chicago, IL, USA) or Gpr55-specific siRNAs (si-GPR55; siGENOME mouse GPR55 SMART pool; M-043590-01; Dharmacon) using Lipofectamine LTX and Plus Reagent, according to the manufacturer instructions. Twenty-four hours later, the cells were plated for the different assays or for RNA extraction. The efficiency of interference was monitored by real-time PCR after 72 h of interference, using the primers listed in the Additional file 1: Table S1. β2-microglobulin was followed as a housekeeping gene.
(§2) For the osteoclastogenesis in-vitro assay, RAW264.7 cells were plated in differentiation medium (α-MEM with 10% heat-inactivated FBS, 2 mM L-glutamine, 100 U/mL penicillin, and 100 ug/mL streptomycin) at a density of 5 × 10^3 cells/well in 24-well plates on coverslips for morphological analysis, or at 2 × 10^4 cells/well in six-well plates for RNA extraction. Twenty-four hours later and every 48 h, the medium was replaced and the cells were treated with 15–30 ng/mL RANKL with DMSO and/or PBS as carriers, or with GPR55 antagonists/ agonists (0.5 µM ML-191, 30 µM O1918, 0.5 µM CBD, 0.5 μM CID16020046 1 µM soybean LPI, 1 μM ML-184), or with the peptides (150 nM peptide-P1; or the irrelevant peptide, Irr_P). Twenty-four hours after the last addition, the cells were fixed with 4% paraformaldehyde for morphological analyses or harvested for RNA extraction (see above).

[1] = system: Gpr55 mRNA in RAW264.7 cells; assay: Modulation of Gpr55 mRNA levels by receptor ligands in RANKL-treated RAW264.7 cells; type: cell-based, murine; conditions: 72 h; for Gpr55 mRNA levels (fold non-differentiated): 30 ng/mL RANKL, alone or + 1 μM soybean LPI, 0.5 μM ML-191, 0.5 μM CBD or 30 μM O1918, means ± SEM of at least three independent experiments
Experimental: as §1, §2

endogenous GPR55 (HeLa) = assay: LPI-induced ERK/p38 phosphorylation in shCTRL-HeLa clones (Western blot); type: cell-based, human; conditions: for inhibition of LPI stimulation of both ERK2 and p38 phosphorylation at 5 min / inhibition of LPI-induced stimulation of ERK1/2: 30 µM ML-191, 10 µM CBD or 10 µM O1918
Experimental: For stable interference of GPR55, HeLa cells were plated at 1.5 × 10^5 cells/well in six-well plates in growth medium without antibiotics, and 24 h later, the cells were transfected with 1.7 µg/well OmicsLink short hairpin (sh)RNA expression clone CSHCTR001-CU6 (shCTRL) or clone HSH022476-3-CU6 (shGPR55) from GeneCopoeia (Rockville, MD, USA), using Lipofectamine 2000, according the manufacturer instructions. Forty-eight hours after transfection, HeLa clones stably expressing shRNAs were selected in growth medium containing 0.3 µg/mL puromycin. The efficiency of interference was monitored by real-time PCR using the primers listed in the Additional file 1: Table S1. HPRT1 was followed as a housekeeping gene.
Twenty-four hours after transfection (HEK293T, HeLa cells or clones) or 72 h after interference (RAW264.7 cells), the cells were washed twice with HBSS^++, serum deprived (HEK293T cells for 4 h in DMEM; HeLa cells and clones for 2 h in MEM plus 2 mM glutamine and 25 mM HEPES; RAW264.7 cells for 2 h in DMEM), washed once again with HBSS^++, incubated in stimulation buffer (HBSS^++ with 10 mM HEPES, 0.4% faf-BSA for HEK293T cells; HBSS^++ with 25 mM HEPES and 0.01% faf-BSA for HeLa cells, clones, and RAW264.7 cells) in the absence or presence of stimuli, at 37 °C for the indicated times. Incubations were terminated by washing the cells twice with cold HBSS^++, and the analyses were performed as reported below.
Cell lysates were obtained by scraping the cells into phospho-lysis buffer: 50 mM Tris–HCl, pH 7.5, 100 mM NaCl, 5 mM EDTA, 1% Triton X-100, 50 mM NaF, 40 mM β-glycerophosphate, 200 µM sodium orthovanadate, plus protease and phosphatase inhibitors (Roche). Following gentle homogenisation by 20 passages through a 26-gauge needle, the lysates were centrifuged at 10,000×g for 5 min at 4 °C, and the supernatants were collected.
Protein lysates were subjected to SDS-PAGE, and after electrophoresis, the proteins were transferred to a nitrocellulose membrane (PerkinElmer Life Science, Boston, MA, USA). For immunoblotting, the membranes were blocked with 5% non-fat milk in TBS (10 mM Tris–HCl, pH 7.4, 10 mM NaCl) plus 0.1% Tween-20 (T-TBS) for 30 min at room temperature, and incubated with primary antibodies in T-TBS plus 3% BSA for 2 h at room temperature, or overnight at 4 °C. The membranes were washed twice in T-TBS for 7 min, and then incubated with secondary antibodies conjugated to horseradish peroxidase (1:5,000) (Calbiochem, San Diego, CA, USA) in T-TBS with 5% non-fat milk for 30 min at room temperature. The membranes were then washed twice with T-TBS and once with TBS for 5 min, and the signals were detected by ECL (Amersham Pharmacia, Piscataway, NJ, USA). The rabbit anti-phospho AKT (Ser473), anti-phospho p38 (Thr180/Tyr182), anti-phospho p42/44 (Thr202/Tyr204), anti-p38 (all at dilution 1:1000) were from Cell Signaling Technology (Danvers, MA, USA). The rabbit anti-AKT (B-1), and anti-p42/44 (ERK1; K-23) were from Santa Cruz Biotechnology.

[2] = 0.5 µM ML-191, 0.5 µM CBD, four independent experiments
[3] = 10 µM soybean LPI, 10 min, 10 µM CBD or 30 µM ML-191, relative to CBD or ML-191 basal level

Row | Compound | effect on RANKL-induced Mmp-9 mRNA (RAW264.7 cells) | effect on RANKL-induced Ctr mRNA (RAW264.7 cells; [2]) | reduction of RANKL-induced Cathepsin-k mRNA (RAW264.7 cells; [2]) | reduction of RANKL-induced Nfatc1 mRNA (RAW264.7 cells; [2]) | reduction of RANKL-induced Trap mRNA (RAW264.7 cells; [2]) | Gpr55 mRNA levels (fold non-differentiated) [1] | further enhancement of RANKL-stimulated Gpr55 mRNA levels ([1]; 0.5 μM ML-191, 0.5 μM CBD, 1 μM soybean LPI, versus RANKL alone) | inhibition of LPI stimulation of both ERK2 and p38 phosphorylation at 5 min (endogenous GPR55 (HeLa); 10 µM soybean LPI) | inhibition of LPI-induced stimulation of ERK1/2 (endogenous GPR55 (HeLa); 10 µM soybean LPI) | ERK2 phosphorylation upon LPI stimulation in presence of antagonist (endogenous GPR55 (HeLa); [3]) | p38 phosphorylation upon LPI stimulation in presence of antagonist (endogenous GPR55 (HeLa); [3]) | effect on RANKL-induced Cathepsin-k mRNA (RAW264.7 cells) | effect on RANKL-stimulated Gpr55 mRNA levels ([1]; 30 μM O1918) | basal ERK2 activation level (without LPI) (endogenous GPR55 (HeLa); 30 µM ML-191 or 10 µM O1918)
1 | C=C(C)[C@@H]1CCC(C)=C[C@H]1c1c(O)cc(CCCCC)cc1O [CBD, Cannabidiol] | not affected | not affected | 44% | 40% | 50% | 27.7 ± 0.5 fold non-differentiated | 0.7 -fold | inhibited LPI stimulation of both ERK2 and p38 phosphorylation at 5 min | strongly inhibited | 3.3 -fold the antagonist basal lev | 1.5 -fold the antagonist basal lev | – | – | –
2 | C=C(C)[C@@H]1CCC(C)=C[C@H]1c1c(OC)cc(C)cc1OC [O1918] | not affected | not affected | – | 40% | 40% | 15.8 ± 3.1 fold non-differentiated | – | inhibited LPI stimulation of both ERK2 and p38 phosphorylation at 5 min | abolished | – | – | not affected | did not show any effects | significantly increased basal activation levels
